Data from patent US12606534B2, “Method for the treatment of keratin materials using acid, ester or amide C-glycoside derivatives, and cosmetic composition containing same” (L'OREAL, priority 2016, dated 2026).

Tested on: normal human melanocytes
Assay: Depigmenting activity (reduction of melanin production) in normal human melanocytes in vitro
Type: cell-based
Details: compound at 100 μM, 72 hours incubation, optical density (amount of melanin)
Protocol: The depigmenting activity (reduction of melanin production) of compounds of formula (I) was measured by assay in normal human melanocytes in vitro as follows.
First, normal human melanocytes are cultured and distributed in a multiple-well plate.
After 24 hours, the culture medium was replaced with a medium containing the compounds of formula (I) to be evaluated. The cells were incubated for 72 hours before measuring the final optical density, which measures the amount of melanin produced by the melanocytes. The measurement was calibrated and the compounds were tested at 100 μM.
Various test runs were performed and the results are collated in the following tables.

CC(=O)OC[C@H]1OC(CC(=O)O)[C@H](OC(C)=O)[C@@H](OC(C)=O)[C@@H]1OC(C)=O (stereo partly drawn) [Compound 1]
% depigmentation at 100 μM, Run 3 (Run 3): 24%

O=C(O)C[C@@H]1O[C@H](CO)[C@@H](O)[C@H](O)[C@H]1O [Compound 2]
% depigmentation at 100 μM, Run 2 (Run 2): 29%

C[C@@H]1OC(CC(=O)N(C)C)[C@H](O)[C@H](O)[C@H]1O (stereo partly drawn) [Compound 4]
% depigmentation at 100 μM, Run 1 (Run 1): 15%
